The values that follow come from patent publication US7858349B2, “Anti-cancer compounds” (The Regents of the University of Colorado, priority 1999, dated 2010).

pIC50: −log10 of the molar value.

One assay relates to SCLC strain SHP-77. Description: MTT assay for cell survival, SCLC SHP-77 in vitro. It counts as cell-based, human. The conditions noted are these: ED50 for killing of SCLC strain SHP-77 in vitro, 4 days, 0 = no detectable activity, read-out: SCLC SHP-77 IC50.
For the compound `CC(C)(C)CC(=O)NC(Cc1ccc(OCc2c(Cl)cccc2Cl)cc1)C(=O)NC1CC(C)(C)NC(C)(C)C1` (centres unmarked) [Analog M-1748, tBua-OC2Y-Atmp], the pIC50 is 5.15.
Still for that read-out and setting: next, `CC1(C)CC(NC(=O)[C@H](Cc2ccc(OCc3c(Cl)cccc3Cl)cc2)NC(=O)C(Cl)Cl)CC(C)(C)N1` [Analog M-1692, Dcla-OC2Y-Atmp]: 5.14; `CC(=O)Nc1nc(C)c(S(=O)(=O)N[C@@H](Cc2ccc(OCc3c(Cl)cccc3Cl)cc2)C(=O)NC2CC(C)(C)NC(C)(C)C2)s1` [Analog M-1628, Amts-OC2Y-Atmp]: 4.35.
As to `CC1(C)CC(NC(=O)C(Cc2ccc(OCc3c(Cl)cccc3Cl)cc2)NC(=O)CCCCC2SCC3NC(=O)NC32)CC(C)(C)N1` (centres unmarked) [Analog M-1436, Biot-OC2Y-Atmp], the pIC50 was below 4.22.
The same measure, in the same setting: the result for `CC1(C)CC(NC(=O)C(Cc2ccc(OCc3c(Cl)cccc3Cl)cc2)NC(=O)Cc2ccc3ccccc3c2)CC(C)(C)N1` (centres unmarked) [Analog M-1710, 2Nala-OC2Y-Atmp] reads 5.77; that for `CC1(C)CC(NC(=O)[C@H](Cc2ccc(C#N)cc2)NC(=O)c2cnccn2)CC(C)(C)N1` [Analog M-1524, 2Pyz-PCNF-Atmp], below 4.22; that for `CN1CCN(CCCNC(=O)[C@H](Cc2ccc(OCc3c(Cl)cccc3Cl)cc2)NC(=O)C23CC4CC(CC(C4)C2)C3)CC1` [Analog M-1676, Aca-OC2Y-Amp], 5.21.
As to `CCCCCCC(O)CC=CCCCCCCCC(=O)NC(Cc1ccc(C#N)cc1)C(=O)NC1CC(C)(C)NC(C)(C)C1` (centres unmarked) [Analog M-1478, Rio-PCNF-Atmp], the pIC50 was 4.85.
For the compound `CC1(C)CC(NC(=O)C(Cc2ccc(OCc3c(Cl)cccc3Cl)cc2)NC(=O)C(C)(C)C)CC(C)(C)N1` (centres unmarked) [Analog M-1736, Piva-OC2Y-Atmp], the pIC50 was 4.89.
On the same count and under the same terms, next, `O=C(N[C@H]1CN2CCC1CC2)C(Cc1ccc(OCc2c(Cl)cccc2Cl)cc1)NC(=O)C(c1ccccc1)C1CCCCC1` (single isomer, unassigned) [M-1548 #1]: 5.40; `CC1(C)CC(NC(=O)C(Cc2cc(I)c(OCc3c(Cl)cccc3Cl)c(I)c2)NC(=O)C(c2ccc(Cl)cc2)c2ccc(Cl)cc2)CC(C)(C)N1` (centres unmarked) [Analog M-1762, Bcpa-OCIY-Atmp]: 5.52; `CC1(C)CC(NC(=O)C(NC(=O)c2ccccn2)C2Cc3ccccc3C2)CC(C)(C)N1` (stereo not drawn) [Analog M-1354, Pic-Igl-Atmp]: below 4.22.
On the same count and under the same terms, next, `CC1(C)CC(NC(=O)C(Cc2ccc(C#N)cc2)NC(=O)CCCc2c[nH]c3ccccc23)CC(C)(C)N1` (centres unmarked) [Analog M-1476, 3Ibu-PCNF-Atmp]: below 4.22; `CC1(C)CC(NC(=O)C(NC(=O)C2CCn3c(C(=O)c4ccccc4)ccc32)C2Cc3ccccc3C2)CC(C)(C)N1` (centres unmarked) [Analog M-1686, Ktlc-Igl-Atmp]: 4.85; `CC1(C)CC(NC(=O)C(Cc2ccc(OCc3c(Cl)cccc3Cl)cc2)NC(=O)C=Cc2ccccc2Cl)CC(C)(C)N1` (centres unmarked) [Analog M-1652, 2Ccn-OC2Y-Atmp]: 5.39.
In the case of `CC1(C)CC(NC(=O)C(Cc2ccc(OCc3c(Cl)cccc3Cl)cc2)NC(=O)c2cccnc2Cl)CC(C)(C)N1` (centres unmarked) [Analog M-1714, 2Cln-OC2Y-Atmp], the pIC50 is 5.40.
Same read-out and setting: the result for `CO[C@@](C(=O)NC(Cc1ccc(OCc2c(Cl)cccc2Cl)cc1)C(=O)NC1CC(C)(C)NC(C)(C)C1)(c1ccccc1)C(F)(F)F` (stereo partly drawn) [Analog M-1752, (R)-MTPA-OC2Y-Atmp] reads 5.40; that for `CC1(C)CC(NC(=O)C(Cc2ccc(OCc3c(Cl)cccc3Cl)cc2)NC(=O)OCC2c3ccccc3-c3ccccc32)CC(C)(C)N1` (centres unmarked) [Analog M-1800, Fmoc-OC2Y-Atmp], 5.77; that for `CC1(C)CC(NC(=O)[C@H](Cc2ccc(C#N)cc2)NC(=O)CCCc2ccc(N(CCCl)CCCl)cc2)CC(C)(C)N1` [Analog M-1500, Chl-PCNF-Atmp], 4.60.
Take `CC1(C)CC(NC(=O)C(Cc2ccc(OCc3c(Cl)cccc3Cl)cc2)NC(=O)CC=Cc2ccccc2)CC(C)(C)N1` (centres unmarked) [Analog M-1780, Saa-OC2Y-Atmp]: the pIC50 is 5.74.
In the case of `CC1(C)CC(NC(=O)[C@@H](Cc2ccc(OCc3c(Cl)cccc3Cl)cc2)NC(=O)C(=Cc2ccccc2)c2ccccc2)CC(C)(C)N1` [Analog M-1682, Pcn-D-OC2Y-Atmp], the pIC50 was 5.74.
In the case of `O=C(C=Cc1c(F)c(F)c(F)c(F)c1F)NC(C(=O)N1CCN(Cc2c(F)c(F)c(F)c(F)c2F)CC1)C1Cc2ccccc2C1` (centres unmarked) [Analog M-1690, F5c-Igl-Pipz(F5b)], the pIC50 was 4.60.
Still for that read-out and setting: next, `CN1CCN(CCCNC(=O)C(Cc2ccc(OCc3c(Cl)cccc3Cl)cc2)NC(=O)c2ccc3c(c2)C(=O)c2ccccc2C3=O)CC1` (centres unmarked) [Analog M-1702, Aq2c-OC2Y-Amp]: 5.44; `CC1(C)CC(NC(=O)C(Cc2ccc(-c3ccccc3)cc2)NC(=O)C(=Cc2ccccc2)c2ccccc2)CC(C)(C)N1` (stereo not drawn) [Analog M-1764, Pcn-Bip-Atmp]: 5.60; `O=C(N[C@@H](Cc1ccc(OCc2c(Cl)cccc2Cl)cc1)C(=O)N1CCN(C/C=C/c2ccccc2)CC1)C(=Cc1ccccc1)c1ccccc1` [Analog M-1654, Pcn-OC2Y-tCip]: below 4.22.
Consider `CN1CCN(CCCNC(=O)[C@H](Cc2ccc(OCc3c(Cl)cccc3Cl)cc2)NC(=O)C2CCn3c(C(=O)c4ccccc4)ccc32)CC1` (some centres unmarked) [Analog M-1674, Ktlc-OC2Y-Amp], for which the pIC50 is 5.49.
For `CC1(C)CC(NC(=O)C(Cc2ccc(-c3ccccc3)cc2)NC(=O)C(Oc2ccc(Cl)cc2)Oc2ccc(Cl)cc2)CC(C)(C)N1` (centres unmarked) [Analog M-1766, Bcpoa-Bip-Atmp], the pIC50 was 5.70.
`CC1(C)CC(NC(=O)[C@H](Cc2ccc(C#N)cc2)NC(=O)C(C2CCCCC2)C2CCCCC2)CC(C)(C)N1` [Analog M-1516, Dca-PCNF-Atmp]: the pIC50 is 4.96.
Still for that read-out and setting: next, `CC1(C)CC(NC(=O)C(Cc2ccc(OCc3c(Cl)cccc3Cl)cc2)NC(=O)Cc2cccc3ccccc23)CC(C)(C)N1` (centres unmarked) [Analog M-1708, 1Nala-OC2Y-Atmp]: 5.14.
Turning to `O=C(NC(Cc1ccc(OCc2c(Cl)cccc2Cl)cc1)C(=O)N1CCN(Cc2c(F)c(F)c(F)c(F)c2F)CC1)C(=Cc1ccccc1)c1ccccc1` (centres unmarked) [Analog M-1734, Pcn-OC2Y-Pipz(F5b)], the pIC50 was 4.62.
Consider `O=C(CCCC[C@@H]1SC[C@@H]2NC(=O)N[C@@H]21)N[C@@H](Cc1ccc(OCc2c(Cl)cccc2Cl)cc1)C(=O)N1CCN(C/C=C/c2ccccc2)CC1` [Analog M-1656, Biot-OC2Y-tCip], for which the pIC50 is 5.26.
For `COc1ccc2c(c1)c(CC(=O)NC(C(=O)NC1CC(C)(C)NC(C)(C)C1)C1Cc3ccccc3C1)c(C)n2C(=O)c1ccc(Cl)cc1` (centres unmarked) [Analog M-1688, Indo-Igl-Atmp], the pIC50 is 5.40.
Take `C=CC(=O)NC(NC(=O)C=C)C(=O)NC(Cc1ccc(OCc2c(Cl)cccc2Cl)cc1)C(=O)NC1CC(C)(C)NC(C)(C)C1` (centres unmarked) [Analog M-1718, Baaa-OC2Y-Atmp]: the pIC50 is below 4.22.
`CC1(C)CC(NC(=O)C(Cc2cc(I)c(OCc3c(Cl)cccc3Cl)c(I)c2)NC(=O)C(=Cc2ccccc2)c2ccccc2)CC(C)(C)N1` (centres unmarked) [Analog M-1760, Pcn-OCIY-Atmp]: the pIC50 is 5.70.
Same read-out and setting: next, `CC1(C)CC(NC(=O)C(Cc2ccc(C#N)cc2)NC(=O)COc2c(F)c(F)c(F)c(F)c2F)CC(C)(C)N1` (centres unmarked) [Analog M-1488, F5po-PCNF-Atmp]: below 4.22.
On the same count and under the same terms, the result for `O=C(NC1CCN(Cc2ccccc2)CC1)[C@H](Cc1ccc(OCc2c(Cl)cccc2Cl)cc1)NC(=O)C12CC3CC(CC(C3)C1)C2` [Analog M-1678, Aca-OC2Y-Abzp] reads 5.11.
Turning to `Cc1ccc(CSC(C)(C)C(NC(=O)C(C2CCCCC2)C2CCCCC2)C(=O)NC2CC(C)(C)NC(C)(C)C2)cc1` (centres unmarked) [Analog M-1514, Dca-Pen(Mbzl)-Atmp], the pIC50 was 5.14.

Staying with this assay, now noted: ED50 for killing of SCLC strain SHP-77 in vitro, 4 days, 0 = no detectable activity, read-out: SHP-77 In vitro IC50.
On to `CC1CN(C(=O)C(Cc2c(F)c(F)c(F)c(F)c2F)NC(=O)C=Cc2c(F)c(F)c(F)c(F)c2F)CC(C)N1` (centres unmarked) [Analog M-1186, F5c-F5F-Dmpz], for which the pIC50 is 4.96.
Same read-out and setting: next, `O=C(C=Cc1c(F)c(F)c(F)c(F)c1F)NC(Cc1c(F)c(F)c(F)c(F)c1F)C(=O)NC1CCN(Cc2ccccc2)CC1` (centres unmarked) [Analog M-1182, F5c-F5F-Abzp]: 4.71; `CC1CN(C(=O)C(Cc2ccc(I)cc2)NC(=O)C=Cc2c(F)c(F)c(F)c(F)c2F)CC(C)N1` (centres unmarked) [Analog M-1254, F5c-PIF-Dmpz]: 5.00; `CC1(C)CC(NC(=O)C(NC(=O)C=Cc2c(F)c(F)c(F)c(F)c2F)C(c2ccccc2)c2ccccc2)CC(C)(C)N1` (centres unmarked) [Analog M-1150, F5c-Dip-Atmp]: 5.30.
For the compound `CC1(C)CC(NC(=O)C(Cc2ccc(OP(=O)(O)OCc3ccccc3)cc2)NC(=O)C=Cc2c(F)c(F)c(F)c(F)c2F)CC(C)(C)N1` (centres unmarked) [Analog M-1080, F5c-OBPY-Atmp], the pIC50 was below 4.22.
In the case of `CC1CN(C(=O)C(Cc2ccc(F)cc2)NC(=O)C=Cc2c(F)c(F)c(F)c(F)c2F)CC(C)N1` (centres unmarked) [Analog M-1160, F5c-PFF-Dmpz], the pIC50 was 4.62.
The same measure, in the same setting: the result for `O=C(C=Cc1cccnc1)NC(Cc1ccc(F)cc1)C(=O)N1CCN(c2ccc(Cl)cc2)CC1` (centres unmarked) [Analog M-1212, Pya-PFF-Cpp] reads 5.00; that for `O=C(C=Cc1cccnc1)NC(Cc1ccc2ccccc2c1)C(=O)N1CCN(C(c2ccccc2)c2ccc(Cl)cc2)CC1` (stereo not drawn) [Analog M-1204, Pya-Nal-Cbp], 5.12; that for `CC1(C)CC(NC(=O)C(Cc2c[nH]c3ccccc23)NC(=O)C(N)CCC(=O)O)CC(C)(C)N1` (stereo not drawn) [Analog M-1120, Glu-Trp-Atmp], below 4.22.
The same measure, in the same setting: next, `O=C(C=Cc1c(F)c(F)c(F)c(F)c1F)NC1(C(=O)N(Cc2ccccn2)Cc2ccccn2)Cc2ccccc2C1` [Analog M-1218, F5c-Aic-Dpic]: 4.85; `O=C(C=Cc1cc(C(F)(F)F)cc(C(F)(F)F)c1)NC(Cc1ccc(I)cc1)C(=O)N1CCN(c2ccccn2)CC1` (centres unmarked) [Analog M-1252, Tf2c-PIF-Pypz]: below 4.22.
Regarding `O=C(C=Cc1c(F)c(F)c(F)c(F)c1F)NC(Cc1ccc(F)cc1)C(=O)N1CCN(c2ccccn2)CC1` (centres unmarked) [Analog M-1164, F5c-PFF-Pypz], the pIC50 is 4.85.
Same read-out and setting: the result for `CC1(C)CC(NC(=O)C(Cc2ccc(F)cc2)NC(=O)C=Cc2c(F)c(F)c(F)c(F)c2F)CC(C)(C)N1` (centres unmarked) [Analog M-1140, F5c-PFF-Atmp] reads 4.82.
